Reference: US11221334B2, “Method for determining breast cancer treatment” (THE REGENTS OF THE UNIVERSITY OF COLORADO, A BODY CORPORATE, priority 2012, dated 2022)

How the values were obtained:
MCF7-TGL cells = conditions: for decrease in whole body luminescence: day 11
Experimental: Tumor studies. […] Briefly, 10^6 MCF7-TGL cells stably expressing a triple fusion of thymidine kinase, GLP and luciferase (SFG-NES-TGL retroviral vector) for IVIS imaging purposes were mixed with Matrigel (BD Biosciences) and injected into the fourth inguinal mammary fat pad of female, ovariectomized athymic nu/nu or non-obese diabetic (NOD)/SCID mice (Taconic). At time of tumor injection, E2 pellets (60-day release, 1.5 mg/pellet, Innovative Research of America) or DHT (8 mg/pellet, packed and sealed in silastic tubing) were implanted subcutaneously (SQ) at the back of the neck. Tumor burden was assessed using in vivo imaging system (IVIS) or caliper measurements. Once the tumors had established, the mice were matched into groups on the basis of total tumor burden as measured by IVIS or caliper. […] The feed was irradiated and stored at 4° C. before use. […] All mice were given free access to MDV3100 mixed with chow or control chow during the entire study period and at an average of 3.5 g/day food intake. Feed was changed in the animal cages twice a week. Water and feed were prepared ad libitum. Two hours prior to sacrifice, mice were injected IP with 50 mg/kg BrDU (Sigma-Aldrich). Mice were euthanized by CO2 asphyxiation followed by cervical dislocation and blood, tumors, colon, uteri and mammary glands were harvested.
Immunohistochemistry. Slides were deparaffinized in a series of xylenes and ethanols and antigens were heat retrieved in either 10 mM citrate buffer pH 6.0 (BrdU, Ki67) or 10 mM Tris/1 mM EDTA buffer at pH 9.0 (AR, ER, caspase 3). Tissue for BrdU was incubated in 2N HCl followed by 0.1M sodium borate following antigen retrieval. […] Envision-HRP (Dakocytomation) was used for antibody detection. TUNEL staining for apoptosis was performed using the ApopTag Plus Peroxidase In Situ Apoptosis Detection Kit (Millipore), as per manufacturer's instructions. […] For BrdU and TUNEL staining in xenograft studies, three separate 200× fields of each xenograft tumor were taken using an Olympus BX40 microscope (Center Valley, Pa.) with a SPOT Insight Mosaic 4.2 camera and software (Diagnostic Instruments, Inc., Sterling Heights, Mich.). A color threshold (RGB for positive staining nuclei, and HSB for total nuclei) was adjusted manually using ImageJ (National Institutes of Health) for each image, and particles created by the thresholds were analyzed for total area. RGB area was divided by HSB area and multiplied by 100 for each image. For analysis of the nuclear androgen receptor, cleaved caspase 3 and Ki67, slides were scanned at 20× on an Aperio Scan ScanScope XT. Mammary tumor tissue was traced separately for each tumor and necrotic areas of the tumor removed using a negative pen tool in Aperio's Scanscope software. A Nuclear Algorithm was utilized to measure the percent positive cells for the Ki-67 and Androgen Receptor stained slides and the data exported. Cleaved Caspase 3 stained slides were analyzed using a modified Positive Pixel Count algorithm.

ERβ = target: T1, ERβ (Homo sapiens, UniProt Q92731); assay: Radioligand binding assay, [3H] Estradiol displacement; conditions: 0.5 nM [3H] Estradiol; 0.1 μM to 100 μM
T1 construct: purchased Ricera Biosciences, LLC (contract assay)

[1] = system: AR-dependent MMTV-luciferase reporter; assay: Luciferase assay in MDA-kb2 cells; assay type: cell-based, human; conditions: Enza 10, 1, 0.1 μM, DHT, 24 h
Experimental: Luciferase Assays. MDA-kb2 cells were plated at 5×10^3 cells/well in 96-well luminescence plates and incubated overnight. Cells were treated with 10-fold serial dilutions of Enza (10, 1, 0.1 μM) and DHT (10, 1, 0.1, 0.01, 0.001 nM) that were prepared in DMSO. Following 24 h of incubation, the luminescence levels were determined with the luciferase assay system (Promega). Three independent experiments were performed and the luminescence values were determined as relative units (R.U.) and normalized to vehicle. Values were expressed as the mean fold induction±standard error (SE).

PR, SDF-1 = assay: qPCR of estrogen responsive genes PR and SDF-1; assay type: cell-based
Experimental: For FASN, PRLR and GCDFP-15, SYBR green quantitative gene expression analysis was performed using the following primers: FASN [NT] ID NO: 1), FASN […] ID NO: 2); PRLR [NT] ID NO: 3), PRLR […] ID NO: 4); […] ID NO: 5), […] ID NO: 6); 18[…] ID NO: 7), 18[…] ID NO: 8). For PR and SDF-1, taqman real time PCR was performed using validated primer/probe sets from Applied Biosystems (assay IDs: PR Hs01556702_ml, SDF-1 Hs00171022 ml, 18S Hs99999901_sl). Relative gene expression was calculated using the comparative Ct method and values were normalized to 18S.

ERα = target: T2, ERα (Homo sapiens, UniProt P03372); assay: Radioligand binding assay, [3H] Estradiol displacement; conditions: 0.5 nM [3H] Estradiol; 0.1 μM to 100 μM
T2 construct: purchased Ricera Biosciences, LLC (contract assay)
T2 sequence (P03372 1-595): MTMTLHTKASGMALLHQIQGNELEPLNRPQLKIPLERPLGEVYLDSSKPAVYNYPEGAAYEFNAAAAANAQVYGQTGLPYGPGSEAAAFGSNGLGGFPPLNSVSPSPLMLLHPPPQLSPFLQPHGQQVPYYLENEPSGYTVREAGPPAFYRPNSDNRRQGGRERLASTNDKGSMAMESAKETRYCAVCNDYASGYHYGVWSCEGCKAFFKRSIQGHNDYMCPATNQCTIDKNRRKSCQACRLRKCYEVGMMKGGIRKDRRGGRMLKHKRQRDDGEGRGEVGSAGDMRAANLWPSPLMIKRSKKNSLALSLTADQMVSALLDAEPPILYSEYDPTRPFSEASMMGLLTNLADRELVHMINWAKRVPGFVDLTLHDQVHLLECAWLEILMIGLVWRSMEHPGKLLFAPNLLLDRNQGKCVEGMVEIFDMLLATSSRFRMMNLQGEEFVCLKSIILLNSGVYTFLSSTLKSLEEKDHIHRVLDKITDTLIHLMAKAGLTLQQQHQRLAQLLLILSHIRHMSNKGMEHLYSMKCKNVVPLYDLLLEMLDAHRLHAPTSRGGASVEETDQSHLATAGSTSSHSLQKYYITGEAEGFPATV

breast cancer = assay: Tamoxifen study: adjuvant tamoxifen cohort, Kaplan-Meier by AR:ER ratio; assay type: in vivo, female patients
[2] = E2 pellet, chow 50 mg/kg enzalutamide or tamoxifen pellet

T1 sequence (Q92731 whole entry): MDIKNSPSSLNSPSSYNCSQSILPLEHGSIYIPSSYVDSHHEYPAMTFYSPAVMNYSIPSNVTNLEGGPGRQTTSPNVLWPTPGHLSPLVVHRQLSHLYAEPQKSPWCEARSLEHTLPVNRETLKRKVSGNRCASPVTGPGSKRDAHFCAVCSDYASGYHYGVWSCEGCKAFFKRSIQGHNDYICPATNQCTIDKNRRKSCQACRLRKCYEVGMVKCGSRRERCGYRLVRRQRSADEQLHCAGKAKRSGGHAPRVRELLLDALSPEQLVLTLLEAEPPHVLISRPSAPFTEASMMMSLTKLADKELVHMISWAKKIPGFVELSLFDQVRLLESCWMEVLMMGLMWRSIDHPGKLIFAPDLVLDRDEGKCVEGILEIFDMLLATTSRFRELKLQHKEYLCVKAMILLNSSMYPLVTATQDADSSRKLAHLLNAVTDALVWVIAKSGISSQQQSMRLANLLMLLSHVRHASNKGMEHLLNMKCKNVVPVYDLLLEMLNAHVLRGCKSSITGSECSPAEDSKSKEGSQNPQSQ

Structure (SMILES) | decrease in AR nuclear localization in tumors (MCF7-TGL cells; DHT pellet, chow 50 mg/kg) | increase in apoptotic cells (TUNEL staining) (MCF7-TGL cells; DHT pellet, chow 50 mg/kg) | decrease in luminescence as compared to the DHT group (MCF7-TGL cells; DHT pellet, chow containing 50 mg/kg enzalutamide, day 19, IVIS) | tumor burden (MCF7-TGL cells; DHT pellet, enzalutamide by oral gavage) | apoptosis under E2-stimulated growth conditions (MCF7-TGL cells; E2 pellet) | decrease in whole body luminescence (MCF7-TGL cells; [2]) | binding to ERβ (ERβ) | activation of androgen responsive luciferase reporter [1] | E2-induced upregulation of PR and SDF-1 mRNA (PR, SDF-1) | binding to ERα (ERα) | decrease in cell proliferation compared to the E2 group (BrdU incorporation) (MCF7-TGL cells; [2]) | mean time to failure (breast cancer; AR:ER<1.3) | median time to failure (breast cancer; AR:ER<1.3) | median time to failure (breast cancer; AR:ER>=1.3) | mean time to failure (breast cancer; higher AR:ER ratio group (cut point 1.3))
CNC(=O)c1ccc(N2C(=S)N(c3ccc(C#N)c(C(F)(F)F)c3)C(=O)C2(C)C)cc1F [enzalutamide] | 92.5% | 50% | 83.2% | decreased in a dose dependent manner | did not induce apoptosis | 70.3% | did not significantly bind | inhibited activation of the luciferase construct in a dose dependent manner | inhibited | did not significantly bind | – | – | – | – | –
CC/C(=C(\c1ccccc1)c1ccc(OCCN(C)C)cc1)c1ccccc1 [tamoxifen] | – | – | – | – | – | 59.9% | – | – | – | – | 46.4% | 45+/−2.3 months | > 120 months | 30+/−2 months | 29+/−4.3 months
